Test system: MV-4-11 cells
Assay: Gene expression microarray analysis (Affymetrix PrimeView) and GSEA
Type: cell-based, human
Design: RFU PODN (11730768_x_at) / Fold change /veh PODN (11730768_x_at) / RFU LINC00158 (11744669_a_at) / Fold change /veh LINC00158 (11744669_a_at) / RFU DUSP10 (11751237_a_at) / Fold change /veh DUSP10 (11751237_a_at) / RFU ID3 (11757404_x_at) / Fold change /veh ID3 (11757404_x_at) / RFU PLEKHG5 (11737974_s_at) / Fold change /veh PLEKHG5 (11737974_s_at) / RFU LRRC4B (11730491_at) / Fold change /veh LRRC4B (11730491_at) / RFU GIMAP4 (11747438_a_at) / Fold change /veh GIMAP4 (11747438_a_at) / RFU KRT8 (11758183_x_at) / Fold change /veh KRT8 (11758183_x_at) / RFU CNN1 (11734310_a_at) / Fold change /veh CNN1 (11734310_a_at) / RFU VPS37D (11726825_at) / Fold change /veh VPS37D (11726825_at) / RFU C10orf10 (11716522_x_at) / Fold change /veh C10orf10 (11716522_x_at) / RFU KIR2DL2 /// KIR2DL4 /// KIR2DL5A /// KIR2DL5B /// KIR2DS1 /// KIR2DS2 /// KIR2DS3 /// KIR2DS4 /// KIR3DL3 /// KIR3DL3 /// KIR3DS1 (11738374_at) / Fold change /veh KIR2DL2 /// KIR2DL4 /// KIR2DL5A /// KIR2DL5B /// KIR2DS1 /// KIR2DS2 /// KIR2DS3 /// KIR2DS4 /// KIR3DL3 /// KIR3DL3 /// KIR3DS1 (11738374_at) / RFU C1QL1 (11718748_at) / Fold change /veh C1QL1 (11718748_at) / RFU TMPRSS4 (11747572_a_at) / Fold change /veh TMPRSS4 (11747572_a_at) / RFU HAMP (11756126_x_at) / Fold change /veh HAMP (11756126_x_at) / RFU RNFT2 (11725882_a_at) / Fold change /veh RNFT2 (11725882_a_at) / RFU NR4A2 (11747474_a_at) / Fold change /veh NR4A2 (11747474_a_at) / RFU ABCC12 (11746883_a_at) / Fold change /veh ABCC12 (11746883_a_at) / RFU TMEM136 (11760407_x_at) / Fold change /veh TMEM136 (11760407_x_at) / RFU CLDN22 /// WWC2 (11732394_at) / Fold change /veh CLDN22 /// WWC2 (11732394_at) / RFU HLA-DPB1 (11760878_x_at) / Fold change /veh HLA-DPB1 (11760878_x_at) / RFU SPINT1 (11716480_a_at) / Fold change /veh SPINT1 (11716480_a_at) / RFU GAP43 (11754022_s_at) / Fold change /veh GAP43 (11754022_s_at) / RFU A4GNT (11735810_at) / Fold change /veh A4GNT (11735810_at) / RFU PRB3 (11715151_x_at) / Fold change /veh PRB3 (11715151_x_at) / RFU TUBB4B (11761932_at) / Fold change /veh TUBB4B (11761932_at) / RFU CAPN14 (11732068_a_at) / Fold change /veh CAPN14 (11732068_a_at) / RFU TMCC2 (11721928_a_at) / Fold change /veh TMCC2 (11721928_a_at) / RFU IRGQ (11745062_a_at) / Fold change /veh IRGQ (11745062_a_at) / RFU FAM174B (11720279_a_at) / Fold change /veh FAM174B (11720279_a_at) / RFU TMPRSS4 (11748680_a_at) / Fold change /veh TMPRSS4 (11748680_a_at) / RFU FAM212B (11763350_a_at) / Fold change /veh FAM212B (11763350_a_at) / RFU PLEKHG5 (11743358_a_at) / Fold change /veh PLEKHG5 (11743358_a_at) / RFU ZSCAN30 (11745921_a_at) / Fold change /veh ZSCAN30 (11745921_a_at) / RFU CMKLR1 (11741424_a_at) / Fold change /veh CMKLR1 (11741424_a_at) / RFU LOC101060620 /// MAPK8IP1 (11723275_at) / Fold change /veh LOC101060620 /// MAPK8IP1 (11723275_at) / RFU SPTSSB (11747773_x_at) / Fold change /veh SPTSSB (11747773_x_at) / RFU PRSS12 (11739890_at) / Fold change /veh PRSS12 (11739890_at) / RFU BIN1 (11741810_x_at) / Fold change /veh BIN1 (11741810_x_at) / RFU WNT11 (11732464_a_at) / Fold change /veh WNT11 (11732464_a_at) / RFU C10orf10 (11716521_a_at) / Fold change /veh C10orf10 (11716521_a_at) / RFU C5orf56 (11738089_at) / Fold change /veh C5orf56 (11738089_at) / RFU CYB561 (11721691_x_at) / Fold change /veh CYB561 (11721691_x_at) / RFU ANKRD19P (11752326_a_at) / Fold change /veh ANKRD19P (11752326_a_at) / RFU OR2T12 /// OR2T33 /// OR2T8 (11738714_s_at) / Fold change /veh OR2T12 /// OR2T33 /// OR2T8 (11738714_s_at) / RFU VCAN (11748164_a_at) / Fold change /veh VCAN (11748164_a_at) / RFU JSRP1 (11732532_at) / Fold change /veh JSRP1 (11732532_at) / RFU KRTAP10-11 (11738290_x_at) / Fold change /veh KRTAP10-11 (11738290_x_at) / RFU MYO3A (11730013_a_at) / Fold change /veh MYO3A (11730013_a_at) / RFU EBF3 (11725865_a_at) / Fold change /veh EBF3 (11725865_a_at) / RFU CAMK2N1 (11719241_x_at) / Fold change /veh CAMK2N1 (11719241_x_at) / RFU C5orf56 (11738088_a_at) / Fold change /veh C5orf56 (11738088_a_at) / RFU OLFML3 (11715873_a_at) / Fold change /veh OLFML3 (11715873_a_at) / RFU LOC100653217 /// NTM (11731650_a_at) / Fold change /veh LOC100653217 /// NTM (11731650_a_at) / RFU MAPK11 (11762145_a_at) / Fold change /veh MAPK11 (11762145_a_at) / RFU FIZ1 (11724087_x_at) / Fold change /veh FIZ1 (11724087_x_at) / RFU OASL (11726364_x_at) / Fold change /veh OASL (11726364_x_at) / RFU SOX15 (11748057_x_at) / Fold change /veh SOX15 (11748057_x_at) / RFU CD79A (11719716_a_at) / Fold change /veh CD79A (11719716_a_at) / RFU HIST1H1D (11736915_at) / Fold change /veh HIST1H1D (11736915_at) / RFU CASKIN2 (11723855_a_at) / Fold change /veh CASKIN2 (11723855_a_at) / RFU LOC730098 (11760151_x_at) / Fold change /veh LOC730098 (11760151_x_at) / RFU OR4N2 (11742367_at) / Fold change /veh OR4N2 (11742367_at) / RFU PRRT2 (11749266_a_at) / Fold change /veh PRRT2 (11749266_a_at) / RFU SNX32 (11753110_a_at) / Fold change /veh SNX32 (11753110_a_at) / RFU CDHR5 (11726645_a_at) / Fold change /veh CDHR5 (11726645_a_at) / RFU RCAN1 (11760418_a_at) / Fold change /veh RCAN1 (11760418_a_at) / RFU FAM167A (11723789_a_at) / Fold change /veh FAM167A (11723789_a_at) / RFU FAM26E (11764081_at) / Fold change /veh FAM26E (11764081_at) / RFU ISYNA1 (11749810_s_at) / Fold change /veh ISYNA1 (11749810_s_at) / RFU ACY1 (11761880_at) / Fold change /veh ACY1 (11761880_at) / RFU 11764098_at / Fold change /veh 11764098_at / RFU SAMD14 (11745864_x_at) / Fold change /veh SAMD14 (11745864_x_at) / RFU NPB (11741838_a_at) / Fold change /veh NPB (11741838_a_at) / RFU TMPRSS6 (11731388_a_at) / Fold change /veh TMPRSS6 (11731388_a_at) / RFU KRTAP10-2 (11738614_at) / Fold change /veh KRTAP10-2 (11738614_at) / RFU ARHGAP8 /// PRR5-ARHGAP8 (11727945_x_at) / Fold change /veh ARHGAP8 /// PRR5-ARHGAP8 (11727945_x_at) / RFU KRTAP5-7 /// NADSYN1 (11734609_at) / Fold change /veh KRTAP5-7 /// NADSYN1 (11734609_at) / RFU RASL12 (11751679_a_at) / Fold change /veh RASL12 (11751679_a_at) / RFU CDKN2B (11736163_a_at) / Fold change /veh CDKN2B (11736163_a_at) / RFU PRF1 (11729649_at) / Fold change /veh PRF1 (11729649_at) / RFU, ZNF638 /// ZNF638-IT1 / Fold change vs veh, ZNF638 /// ZNF638-IT1 / RFU, PANK3 / Fold change vs veh, PANK3 / RFU, SH3YL1 / Fold change vs veh, SH3YL1 / RFU, ZEB2 / Fold change vs veh, ZEB2 / RFU, NRIP1 / Fold change vs veh, NRIP1 / RFU, PTTG1IP / Fold change vs veh, PTTG1IP / RFU, CAPN2 / Fold change vs veh, CAPN2 / RFU, MED14 / Fold change vs veh, MED14 / RFU, SNORA58 / Fold change vs veh, SNORA58 / RFU, C1orf63 / Fold change vs veh, C1orf63 / RFU, LRRFIP1 / Fold change vs veh, LRRFIP1 / RFU, NDUFAF7 / Fold change vs veh, NDUFAF7 / RFU, SLC12A2 / Fold change vs veh, SLC12A2 / RFU, IBTK / Fold change vs veh, IBTK / RFU, ESF1 / Fold change vs veh, ESF1 / Fold change vs veh, TMEM50B / RFU, TAOK1 / Fold change vs veh, TAOK1 / RFU, ACBD3 / Fold change vs veh, ACBD3 / RFU, TMA16 / Fold change vs veh, TMA16 / RFU, RWDD3 / Fold change vs veh, RWDD3 / RFU, BCAT1 / Fold change vs veh, BCAT1 / RFU, EDEM3 / Fold change vs veh, EDEM3 / RFU, TMEM33 / Fold change vs veh, TMEM33 / RFU, WDR75 / Fold change vs veh, WDR75 / RFU, AHCTF1 / Fold change vs veh, AHCTF1 / RFU, TFRC / Fold change vs veh, TFRC / RFU, ZDHHC17 / Fold change vs veh, ZDHHC17 / RFU, NOM1 / Fold change vs veh, NOM1 / RFU, ARL8B / Fold change vs veh, ARL8B / RFU, ZBTB11 / Fold change vs veh, ZBTB11 / RFU, TAMM41 / Fold change vs veh, TAMM41 / RFU, KIAA1704 /// LOC100996395 / Fold change vs veh, KIAA1704 /// LOC100996395 / RFU, ING1 / Fold change vs veh, ING1 / RFU, TRMT61B / Fold change vs veh, TRMT61B / RFU, FUBP3 / Fold change vs veh, FUBP3 / RFU, TP53 / Fold change vs veh, TP53 / RFU, TNKS2 / Fold change vs veh, TNKS2 / RFU, ZFP14 / Fold change vs veh, ZFP14 / RFU, ACTR2 / Fold change vs veh, ACTR2 / RFU, PPP3R1 / Fold change vs veh, PPP3R1 / RFU, PIK3R1 / Fold change vs veh, PIK3R1 / RFU, HNRNPA1 / Fold change vs veh, HNRNPA1 / RFU, RNF170 / Fold change vs veh, RNF170 / RFU, ZNF28 / Fold change vs veh, ZNF28 / RFU, RNGTT / Fold change vs veh, RNGTT / RFU, OGT / Fold change vs veh, OGT / RFU, BRD1 / Fold change vs veh, BRD1 / RFU, MARS / Fold change vs veh, MARS / RFU, ZNF655 / Fold change vs veh, ZNF655 / RFU, FAHD1 / Fold change vs veh, FAHD1 / RFU, BDP1 / Fold change vs veh, BDP1 / RFU, LRRCC1 / Fold change vs veh, LRRCC1 / RFU, ARID1A / Fold change vs veh, ARID1A / RFU, ZNF146 / Fold change vs veh, ZNF146 / RFU, ZNF330 / Fold change vs veh, ZNF330 / RFU, GPN3 / Fold change vs veh, GPN3 / RFU, C9orf123 / Fold change vs veh, C9orf123 / RFU, N4BP2L2 / Fold change vs veh, N4BP2L2 / RFU, ARFIP1 / Fold change vs veh, ARFIP1 / RFU, FAM179B / Fold change vs veh, FAM179B / RFU, BCL10 / Fold change vs veh, BCL10 / RFU, UHRF1BP1L / Fold change vs veh, UHRF1BP1L / RFU, BET1 / Fold change vs veh, BET1 / RFU, CNOT2 / Fold change vs veh, CNOT2 / RFU, ZNF268 / Fold change vs veh, ZNF268 / Fold change vs veh, ZNF507 / RFU, DGCR2 / Fold change vs veh, DGCR2 / RFU, WDSUB1 / Fold change vs veh, WDSUB1 / Fold change vs veh, HSP90B1 /// MIR3652 / RFU, ADSS / Fold change vs veh, ADSS / RFU, GK / Fold change vs veh, GK / RFU, ZNF148 / Fold change vs veh, ZNF148 / RFU, TAF9 / Fold change vs veh, TAF9 / RFU, SLC1A5 / Fold change vs veh, SLC1A5 / RFU, SLMO2 / Fold change vs veh, SLMO2 / RFU, ABCC4 / Fold change vs veh, ABCC4 / RFU, LOC101060439 /// RAP1B / Fold change vs veh, LOC101060439 /// RAP1B / RFU, RFX7 / Fold change vs veh, RFX7 / RFU, GTPBP10 / Fold change vs veh, GTPBP10 / RFU, CNEP1R1 / Fold change vs veh, CNEP1R1 / RFU, BIVM-ERCC5 /// ERCC5 / Fold change vs veh, BIVM-ERCC5 /// ERCC5 / RFU, ILF3 / Fold change vs veh, ILF3 / RFU 11762660_at / Fold change /veh 11762660_at / RFU VCAN (11757783_s_at) / Fold change /veh VCAN (11757783_s_at) / RFU DDX43 (11728927_at) / Fold change /veh DDX43 (11728927_at) / RFU KRT8 (11758188_x_at) / Fold change /veh KRT8 (11758188_x_at) / RFU NKD1 (11759106_at) / Fold change /veh NKD1 (11759106_at) / RFU SRD5A1 (11742802_a_at) / Fold change /veh SRD5A1 (11742802_a_at) / RFU TPSAB1 /// TPSB2 (11721975_s_at) / Fold change /veh TPSAB1 /// TPSB2 (11721975_s_at) / RFU GSTM3 (11746129_a_at) / Fold change /veh GSTM3 (11746129_a_at) / RFU IL23R (11737362_x_at) / Fold change /veh IL23R (11737362_x_at) / RFU TMEM51 (11727254_a_at) / Fold change /veh TMEM51 (11727254_a_at) / RFU PIWIL2 (11732686_x_at) / Fold change /veh PIWIL2 (11732686_x_at) / RFU ORM1 (11744905_x_at) / Fold change /veh ORM1 (11744905_x_at) / RFU CCDC152 (11743942_at) / Fold change /veh CCDC152 (11743942_at) / RFU ECM1 (11717891_a_at) / Fold change /veh ECM1 (11717891_a_at) / RFU IL23R (11748794_a_at) / Fold change /veh IL23R (11748794_a_at) / RFU TNFAIP8L3 (11732012_x_at) / Fold change /veh TNFAIP8L3 (11732012_x_at) / RFU MBOAT4 (11741988_at) / Fold change /veh MBOAT4 (11741988_at) / RFU 11764193_at / Fold change /veh 11764193_at / RFU TMEM53 (11763286_at) / Fold change /veh TMEM53 (11763286_at) / RFU MAGEB2 (11727129_at) / Fold change /veh MAGEB2 (11727129_at) / RFU TMEM200A (11744735_a_at) / Fold change /veh TMEM200A (11744735_a_at) / RFU CCDC152 (11751479_a_at) / Fold change /veh CCDC152 (11751479_a_at) / RFU FAM211A (11726209_a_at) / Fold change /veh FAM211A (11726209_a_at) / RFU RGS16 (11746705_a_at) / Fold change /veh RGS16 (11746705_a_at) / RFU VCAN (11755009_s_at) / Fold change /veh VCAN (11755009_s_at) / RFU RHOB (11743442_s_at) / Fold change /veh RHOB (11743442_s_at) / RFU RGS16 (11720943_a_at) / Fold change /veh RGS16 (11720943_a_at) / RFU RGS16 (11720944_at) / Fold change /veh RGS16 (11720944_at) / RFU, VPS4B / Fold change vs veh, VPS4B / RFU, CREB1 / Fold change vs veh, CREB1 / RFU, DNAJC13 / Fold change vs veh, DNAJC13 / RFU, GNAQ / Fold change vs veh, GNAQ / RFU, CDK5R1 / Fold change vs veh, CDK5R1 / RFU, ZRANB3 / Fold change vs veh, ZRANB3 / RFU, CUL4A / Fold change vs veh, CUL4A / RFU, CCNY / Fold change vs veh, CCNY / RFU, UFL1 / Fold change vs veh, UFL1 / RFU, COG3 / Fold change vs veh, COG3 / RFU, DIAPH2 / Fold change vs veh, DIAPH2 / RFU, SKA2 / Fold change vs veh, SKA2 / RFU, AFF3 / Fold change vs veh, AFF3 / RFU, LMF1 / Fold change vs veh, LMF1 / RFU, IPO11 / Fold change vs veh, IPO11 / RFU, DFFB / Fold change vs veh, DFFB / RFU, FOXP1 / Fold change vs veh, FOXP1 / RFU, CARD8 / Fold change vs veh, CARD8 / RFU, STRN3 / Fold change vs veh, STRN3 / RFU, ADK / Fold change vs veh, ADK / RFU, RASSF2 / Fold change vs veh, RASSF2 / RFU, WIPF1 / Fold change vs veh, WIPF1 / RFU, LARP1B / Fold change vs veh, LARP1B / RFU, RASA1 / Fold change vs veh, RASA1 / RFU, RB1 / Fold change vs veh, RB1 / RFU, PPFIA1 / Fold change vs veh, PPFIA1 / RFU, MAT2A / Fold change vs veh, MAT2A / RFU, CCT5 / Fold change vs veh, CCT5 / RFU, WDR92 / Fold change vs veh, WDR92 / RFU, CUX1 / Fold change vs veh, CUX1 / RFU, TTC7A / Fold change vs veh, TTC7A / RFU, TMEM135 / Fold change vs veh, TMEM135 / RFU, DEPTOR / Fold change vs veh, DEPTOR / RFU, CPM / Fold change vs veh, CPM / RFU, DNAJB6 / Fold change vs veh, DNAJB6 / RFU, CACNA2D3 / Fold change vs veh, CACNA2D3 / RFU, DTX4 / Fold change vs veh, DTX4 / RFU, TFCP2 / Fold change vs veh, TFCP2 / RFU, GMCL1 /// GMCL1P1 / Fold change vs veh, GMCL1 /// GMCL1P1 / RFU, AEBP2 / Fold change vs veh, AEBP2 / RFU, SNHG1 /// SNORD22 /// SNORD25 /// SNORD26 /// SNORD27 /// SNORD28 /// SNORD29 /// SNORD31 / Fold change vs veh, SNHG1 /// SNORD22 /// SNORD25 /// SNORD26 /// SNORD27 /// SNORD28 /// SNORD29 /// SNORD31 / Fold change (Aza/veh), C12orf56 (ProbeSet 11735607_a_at) / Fold change (ACY-1035/veh), C12orf56 (ProbeSet 11735607_a_at) / Fold change (Aza/veh), FGFR1OP (ProbeSet 11751329_s_at) / Fold change (ACY-1035/veh), FGFR1OP (ProbeSet 11751329_s_at) / Fold change (Aza/veh), VPS36 (ProbeSet 11739960_a_at) / Fold change (ACY-1035/veh), VPS36 (ProbeSet 11739960_a_at) / RFU SYPL1 (11715823_x_at) / Fold change /veh SYPL1 (11715823_x_at) / RFU IGFBP7 (11715501_s_at) / Fold change /veh IGFBP7 (11715501_s_at) / RFU REEP3 (11722064_at) / Fold change /veh REEP3 (11722064_at) / RFU IGLL1 (11728026_x_at) / Fold change /veh IGLL1 (11728026_x_at): dose or concentration left out as unconfirmed
Conditions: ProbeSet 11741123_x_at; LIST D

Q: `Nc1ncn([C@@H]2O[C@H](CO)[C@@H](O)[C@H]2O)c(=O)n1` [azacitidine] was tested. Which “RFU, ADK” value did it give?
A: Its value is 188.85 RFU.

From publication PMC5218480 (PLoS ONE, 2017)
